This passage reports CC50 and IC50 results from US7432260B2, “Pyrimidine compounds” (Cyclacel Limted, priority 2002, dated 2008).

A short description of series [1]: Compound cytotoxicity in PBMCs (MTS). In kind it is cell-based. The following applies: human, concentration decreasing cell viability by 50%, read-out: PBMC TC50. The method, then: Representative compounds of the present invention were tested for antiviral activity against HIV-1 in human peripheral blood mononuclear cells (PBMCs) using the clinical paediatric HIV strain RoJo or WeJo. PBMCs were cultured under conditions which promote cell survival and HIV replication. Antiviral activity was tested for from 6-9 log10 serial dilutions of a 100 μM compound stock solution in DMSO.
Fresh PBMCs, seronegative for HIV and HBV, were isolated from screened donors (Interstate Blood Bank, Inc. Memphis, Term.). Cells were pelleted/washed 2-3 times by low speed centrifugation and re-suspension in PBS to remove contaminating platelets. […] Banded PBMCs were gently aspirated from the resulting interface and subsequently washed with PBS by low speed centrifugation. After the final wash, cells were enumerated by trypan blue exclusion and re-suspended in RPMI 1640 supplemented with fetal bovine serum (FBS), and L-glutamine, Phytohemagglutinin (PHA-P, Sigma). The cells were allowed to incubate at 37° C. After incubation, PBMCs were centrifuged and resuspended in RPMI 1640 with FBS, L-glutamine, penicillin, streptomycin, gentamycin, and recombinant human IL-2 (R&D Systems, Inc). IL-2 is included in the culture medium to maintain the cell division initiated by the PHA mitogenic stimulation. PBMCs were maintained in this with bi-weekly medium changes until used in the assay protocol. Cells were kept in culture for a maximum of two weeks before being deemed too old for use in assays and discarded. Monocytes were depleted from the culture as the result of adherence to the tissue culture flask.
For the standard PBMC assay, PHA-P stimulated cells from at least two normal donors were pooled, diluted and plated in the interior wells of a 96-well round bottom microplate. Pooling of mononuclear cells from more than one donor was used to minimise the variability observed between individual donors, which results from quantitative and qualitative differences in HIV infection and overall response to the PHA and IL-2 of primary lymphocyte populations. Each plate contained virus/cell control wells (cells plus virus), experimental wells (drug plus cells plus virus) and compound control wells (drug plus media […], necessary for MTS monitoring of cytotoxicity). Since HIV-1 is not cytopathic to PBMCs, this allows the use of the same assay plate for both antiviral activity and cytotoxicity measurements. Test drug dilutions were prepared in microtiter tubes and each concentration was placed in appropriate wells using the standard format. A predetermined dilution of virus stock was placed in each test well (final MOI≅0.1). The PBMC cultures were maintained for seven days following infection at 37° C., 5% CO2. After this period, cell-free supernatant samples were collected for analysis of reverse transcriptase activity and/or HIV p24 content. Following removal of supernatant samples, compound cytotoxicity was measured by addition of MTS to the plates for determination of cell viability. Wells were also examined microscopically and any abnormalities were noted.

The target of series [2] is T1, ARK-2: aurora kinase-2 (aurora A kinase) (Homo sapiens, UniProt O14965).
T1 construct: purchased
T1 sequence (O14965 whole entry): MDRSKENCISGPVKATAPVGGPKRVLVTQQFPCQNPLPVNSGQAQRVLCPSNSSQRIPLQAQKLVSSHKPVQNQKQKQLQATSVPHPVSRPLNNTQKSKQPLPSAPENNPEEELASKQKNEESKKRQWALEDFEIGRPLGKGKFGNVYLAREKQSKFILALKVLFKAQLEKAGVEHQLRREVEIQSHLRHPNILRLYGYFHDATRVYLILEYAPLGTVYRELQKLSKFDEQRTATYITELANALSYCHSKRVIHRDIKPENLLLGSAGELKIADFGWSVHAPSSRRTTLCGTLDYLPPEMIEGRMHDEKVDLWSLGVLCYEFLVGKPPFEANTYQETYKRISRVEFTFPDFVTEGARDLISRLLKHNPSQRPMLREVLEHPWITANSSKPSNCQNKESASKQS
Kind of series: Aurora-A (human) kinase assay. In kind it is biochemical. To be noted: Table 2; 15 μM ATP; read-out: Kinase Inhibition IC50 ARK-2. The protocol: Aurora-A (human) kinase assay. This was achieved by measurement of incorporation of radioactive phosphate from ATP into Kemptide substrate (LRRASLG), upon phosphorylation by commercially obtained aurora-A kinase. Assays were performed using 96-well plates and appropriate assay buffers (8 mM MOPS, 0.2 mM EDTA, pH 7.0), into which were added 5-10 ng of active enzyme with 200 μM substrate (Kemptide). […] Reactions were stopped by addition of 3% phosphoric acid, followed by filtration through p81 filterplates (Whatman Polyfiltronics, Kent, UK). After washing 5 times with 75 mM aq orthophosphoric acid and once in methanol, plates were dried, scintillant added and incorporated radioactivity measured in a scintillation counter (TopCount, Packard Instruments, Pangbourne, Berks, UK). Compounds for kinase assay were made up as 10 mM stocks in DMSO and diluted into 10% DMSO in assay buffer.

As usually defined, the IC50 is the midpoint of a concentration-inhibition curve.

`CCNc1nc(C)c(-c2ccnc(Nc3ccc(N4CCOCC4)cc3)n2)s1` [Compound 4, [4-(2-Ethylamino-4-methyl-thiazol-5-yl)-pyrimidin-2-yl]-(4-morpholin-4-yl-phenyl)-amine]: in series [1], the CC50 at 7 days stood at 9.4 µM.

Consider `CC[C@@H](N)C(=O)Nc1nc(C)c(-c2ccnc(Nc3cccc([N+](=O)[O-])c3)n2)s1` [Compound 16, (2R)-2-Amino-N-{4-methyl-5-[2-(3-nitro-phenylamino)-pyrimidin-4-yl]-thiazol-2-yl}-butyramide], for which the IC50 in series [2] stood at 2.8 µM.

For `Cc1nc(N)sc1-c1ccnc(Nc2ccc(N3CCOCC3)cc2)n1` [Compound 1, [4-(2-Amino-4-methyl-thiazol-5-yl)-pyrimidin-2-yl]-(4-morpholin-4-yl-phenyl)-amine], the CC50 at 7 days in series [1] is 6.1 µM.

With `Cc1nc(NC(=O)[C@H](N)[C@@H](C)O)sc1-c1ccnc(Nc2cccc([N+](=O)[O-])c2)n1` [Compound 15, (2R,3R)-2-Amino-3-hydroxy-N-{4-methyl-5-[2-(3-nitro-phenylamino)-pyrimidin-4-yl]-thiazol-2-yl}-butyramide], the CC50 at 7 days in series [1] was determined as 2.4 µM.

On to `CNc1nc(C)c(-c2ccnc(Nc3ccc(N4CCOCC4)cc3)n2)s1` [Compound 3, [4-(2-N-Methylamino-4-methyl-thiazol-5-yl)-pyrimidin-2-yl]-(4-morpholinophenyl)-amine], for which the CC50 at 7 days in series [1] is more than 100 µM.

In the case of `Cc1nc(C)c(-c2ccnc(Nc3ccc(NC(=O)CN4CCCC4)cc3)n2)s1` [Compound 53, N-{4-[4-(2,4-Dimethyl-thiazol-5-yl)-pyrimidin-2-ylamino]-phenyl}-2-pyrrolidin-1-yl-acetamide], the CC50 at 7 days in series [1] was 1.6 µM.
